Legend:
NspS-MbaA = NspS-MbaA (Vibrio cholerae, UniProt Q9KU25); conditions: ΔnspC ΔpotD1 V. cholerae cells (no norspermidine synthesis or import); M9 minimal medium; activates MbaA diguanylate cyclase output via NspS
NspS-6xHis = NspS-6xHis (Vibrio cholerae, UniProt Q9KU25); assay: biochemical
Sequence of NspS-6xHis (Q9KU25 35-359 limits assumed): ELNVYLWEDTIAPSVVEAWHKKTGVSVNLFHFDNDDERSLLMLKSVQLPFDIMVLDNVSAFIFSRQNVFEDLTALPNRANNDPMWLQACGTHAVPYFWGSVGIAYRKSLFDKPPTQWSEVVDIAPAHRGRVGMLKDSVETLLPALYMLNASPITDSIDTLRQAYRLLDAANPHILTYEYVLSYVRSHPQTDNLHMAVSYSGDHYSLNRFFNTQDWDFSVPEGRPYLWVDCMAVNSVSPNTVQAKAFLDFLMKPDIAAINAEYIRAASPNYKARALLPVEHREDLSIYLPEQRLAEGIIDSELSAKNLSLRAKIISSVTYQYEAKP

Sequence of NspS-MbaA (Q9KU25 whole entry, looked up): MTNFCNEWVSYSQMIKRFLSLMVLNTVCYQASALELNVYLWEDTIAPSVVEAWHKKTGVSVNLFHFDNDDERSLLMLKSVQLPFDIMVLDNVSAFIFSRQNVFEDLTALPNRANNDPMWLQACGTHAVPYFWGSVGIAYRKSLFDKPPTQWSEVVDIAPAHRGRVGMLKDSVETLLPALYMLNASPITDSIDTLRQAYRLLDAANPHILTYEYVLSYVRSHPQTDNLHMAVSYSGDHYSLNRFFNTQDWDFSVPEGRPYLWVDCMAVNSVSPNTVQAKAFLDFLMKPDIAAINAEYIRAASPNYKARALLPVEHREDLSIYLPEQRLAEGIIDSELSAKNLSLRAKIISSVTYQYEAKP

Compound | EC50 (NspS-MbaA) [nM] | Kd (NspS-6xHis) [nM]
NCCCNCCCN [norspermidine] | 1 to 5 | 67.1 ± 12.2
NCCCCNCCCN [spermidine] |  | 48.4 ± 14.7

From PMC8967002, “Quantitative input–output dynamics of a c-di-GMP signal transduction cascade in Vibrio cholerae” (PLoS Biology, 2022)
